How the values were obtained:
[1] = tested on: murine intestinal microbiota; assay: Murine fecal microbiota analysis (qRT-PCR, 16S rRNA gene) in Adnp+/− mouse model; assay type: in vivo
Protocol: (§1) All procedures involving animals in the Adnp-mutated mouse model were approved by the Animal Care and Use Committee of Tel Aviv University and the Israeli Ministry of Health. Adnp heterozygous mice (Adnp^+/−) on an ICR background (an outbred mouse line), a model for the ADNP syndrome (Hacohen-Kleiman et al. 2018), were housed in a 12-h light/12-h dark cycle facility with free access to rodent chow and water. Genotyping was performed by Transnetyx (Memphis, Tenn.). After genotyping, the mice were housed in separate cages based on sex, genotype and treatment (up to five mice per cage), for two weeks prior to beginning of NAP treatment.
(§2) NAP peptide was custom made as described in (Hacohen-Kleiman et al. 2018). Prior to behavioral tests, intranasal treatment was administered daily to 1-month-old male and female mice (0.5 μg/5 μl/mouse/dose). For intranasal administration, the peptide was dissolved in a vehicle solution, termed DD, in which each milliliter included 7.5 mg of NaCl, 1.7 mg of citric acid monohydrate, 3 mg of disodium phosphate dihydrate, and 0.2 mg of benzalkonium chloride solution (50%). Each mouse was handheld in a semi-supine position with nostrils facing the investigator. A pipette tip was used to administer 5 μl/two nostrils. The mouse was handheld until the solution was entirely absorbed (˜10 s). Nasal NAP application was performed daily, once a day, for 45 days (5 days a week). After 45 days of treatment, in days of scheduled behavioral tests, NAP was applied 2 h before the test.
Fecal pellets (1-2/mice) were collected 45 days after the beginning of treatment (NAP or DD) and stored at −80° C. until DNA purification procedures. The samples were thawed on ice mixed with 400 μl of sterile PBS/sample followed by mechanical disruption of the sample using a BeadBug microtube homogenizer (Daniel Biotech, Rehovot, Israel) for 2 minutes at 4,000 rpm. A 25 μl sample of lysozyme solution (20 mg/ml) was added, and the samples were incubated with shaking for 30 min at 37° C. on a thermo shaker racking platform. Next, 20 μl proteinase K (20 mg/ml) was included and the samples were thoroughly mixed with 400 μl of sterile lysis buffer (20 mM Tris HCl, 300 mM NaCl, 400 mM EDTA and 1% SDS) and incubated with shaking for 60 min at 56° C. on a thermo shaker racking platform. Next, 300 mg sterile zirconium beads and 150 μl of phenol was added to the samples followed by homogenization (twice for 40 sec. at 4,000 rpm, Daniel biotech, Rehovot, Israel). Then, 150 μl of CI-solution (chloroform-isoamyl alcohol 24:1) was added, mixed and submitted for centrifugation 13,000 rpm at room temperature for 5 minutes, Eppendorf Centrifuge 5417R (Eppendorf, Hamburg, Germany). A 600 μl volume of supernatant was removed and placed in a sterile 2 mL Eppendorf tube. 150 μl of CI-solution was then included and the samples were subjected to centrifugation as above. A 400 μl of aqueous, clear top phase was removed and placed in a sterile 2 mL Eppendorf tube. Then, the 400 μl of DNA solution was mixed with 100 μl of precipitation solution (40 mM EDTA 1.2M sodium acetate and 4 mg/ml glycogen). 1.3 mL of ice-cold 100% ethanol was added, the samples were then mixed and stored over night at −20° C. for DNA precipitation followed by centrifugation (13,000 rpm) at 4° C. The supernatant was discarded and the pellet washed with 500 μl ice-cold 70% ethanol followed by centrifugation for 5 minutes at 13,000 rpm, 4° C. (this step was repeated twice). The pellet was dried in the Speed Vac (Eppendorf Concentrator 5301) for 15 minutes and then re-suspended in 100 μl sterile water. Next, the samples were mixed on the shaker for 10 minutes at room temperature. In the next step, the samples were further purified using Qiagen Purification Kit according to the manufacturer's instructions ([…], Hilden, Germany). DNA was eluted in 100 μl sterile water and stored at −20° C. for long storage. […]

Adnp+/− mice [2] = assay: Open field behavior of Adnp+/− mice; assay type: in vivo, mouse
Protocol: as §1, §2
The test provides a unique opportunity to systematically assess novel environment exploration, general locomotor activity, and anxiety-related behavior in rodents. […] The distance moved and time spent in the entire open field, as well as in its inner defined quadrants (center, border) was recorded using the EthoVision XT video tracking system and software (Noldus Inc. Leesburg, VA). […]

[3] = Body weight of Adnp+/− mice; assay type: in vivo, mouse; details: male Adnp+/− cohort, NAP treatment
Protocol: as §1
as §2, with “Nasal NAP application was performed daily, once a day, for 45 days (5 days a week). After 45 days of treatment, in days of scheduled behavioral tests, NAP was applied 2 h before the test.” left out

Adnp p.Tyr718* mice = assay: Visual evoked potential in CRISPR/Cas9 Adnp p.Tyr718* mice; assay type: in vivo, mouse; details: Adnp p.Tyr718* mice (discovered in males), NAP treatment
Description: We have developed another Adnp mutated mouse model using CRISP/Cas9 technology. The mice carry the most prevalent ADNP syndrome mutation (e.g. Adnp p.Tyr718* in the mouse corresponding to ADNP pTyr719* in the human). […] Monitoring visual evoked potential provides an objective observation of aberrant ADNP activity on one hand and its correction by treatment, e.g. by NAP peptide on another hand. Given the results in Example 1, gut microbiota samples are now being analyzed and are correlated also to visual evoked potential responses of males and females, coupling biomarkers for better diagnostics and clinical monitoring. The following bacteria in gut microbiota are tested and correlated with changes in visual evoked potential in subjects having aberrant ADNP activity: Bifidobacterium, Clostridium, Bacteroides, Faecalibacterium, Eubacterium, Ruminococcus, Peptococcus, Peptostreptococcus, Parabacteroides, Escherichia coli, Verrucomicrobia, Lactobacillus, Clostridium coccoides group, Mouse Intestinal Bacteroides (MIB) Enterococcus genus (gEncocc) and Clostridium Cluster IV (sgClep).

Adnp+/− mice [4] = details: exogenous administration of NAP; cited from earlier work
[5] = tested on: human microbiota-harboring mice suffering from subacute ileitis; details: gut inflammation model; cited from earlier work
[6] = female Adnp+/− mice, fecal samples, intranasal NAP 0.5 μg/mouse daily, 45 days
[7] = females, genotype and NAP treatment effect
[8] = male Adnp+/− mice, fecal samples, intranasal NAP 0.5 μg/mouse daily, 45 days
[9] = males, genotype and NAP treatment effect

What does the source list for NAPVSIPQ?
Changes in microbiota (overall effect of NAP treatment) ([1]; Adnp deficient mice): partially reverses; Total Eubacterial loads ([1]; female Adnp+/+ mice, fecal samples, NAP treated (data not shown)): essentially lower total Eubacterial loads; Trending genotype increases in microbiota groups corrected by NAP treatment ([1]; female Adnp+/− mice): significantly corrected two trending genotype increases; Clostridium coccoides group (Coer) abundance [1, 6]: significant NAP-dependent decreases; Enterococcus genus (gEncocc) numbers [1, 6]: lower fecal Enterococcus genus (gEncocc) numbers; Bacteroides/Prevotella spp (Bac) abundance [1, 7]: neither affected by genotype nor by NAP treatment; Bifidobacterium genus (BIF) abundance [1, 7]: neither affected by genotype nor by NAP treatment; Enterobacteriaceae (Entero) abundance [1, 7]: neither affected by genotype nor by NAP treatment; Eubacteriaceae (EubV3) abundance [1, 7]: neither affected by genotype nor by NAP treatment; Mouse Intestinal Bacteroides (MIB) abundance [1, 7]: neither affected by genotype nor by NAP treatment; Clostridium coccoides group (Coer) intestinal numbers ([1]; male Adnp+/+ controls, NAP treated compared to placebo treated (data not shown)): higher intestinal numbers; Genotype affected microbiota groups whose deficit was reversed by NAP treatment ([1]; male Adnp+/− mice): four out of five; Bifidobacterium genus (BIF) abundance [1, 8]: decreased to control levels; Clostridium coccoides group (Coer) abundance [1, 8]: except for Clostridium coccoides group (Coer) decreased to control levels; Lactobacillus group (Lacto) abundance [1, 8]: decreased to control levels; Mouse Intestinal Bacteroides (MIB) abundance [1, 8]: decreased to control levels; Total Eubacterial loads (EubV3) [1, 8]: decreased to control levels; Bacteroides/Prevotella spp (Bac) abundance [1, 9]: neither affected by genotype nor by NAP treatment; Clostridium Cluster IV (sgClep) abundance [1, 9]: neither affected by genotype nor by NAP treatment; Enterobacteriaceae (Entero) abundance [1, 9]: neither affected by genotype nor by NAP treatment; Enterococcus genus (gEncocc) abundance [1, 9]: neither affected by genotype nor by NAP treatment; Behavioral changes (overall effect of NAP treatment) (Adnp+/− mice [2]; Adnp deficient mice): partially reverses; Time spent in the center area (open field) (Adnp+/− mice [2]; Adnp+/+, Adnp+/− and NAP treated Adnp+/− mice, FIG. 3B): did not reveal significant changes; Frequency entrance to the center area (open field) (Adnp+/− mice [2]; untreated male Adnp+/− mice vs Adnp+/+ (p<0.01) and vs NAP treated Adnp+/− mice (p<0.05), FIG. 3A): significantly higher frequency entrance in to the center area compared to Adnp^+/+ mice and NAP treated Adnp^+/− mice; Body weight [3]: increased weight; Aberrant visual evoked potential patterns (Adnp p.Tyr718* mice): rapidly corrected; Behavioral and developmental defects (Adnp+/− mice [4]): at least partially reverse behavioral and developmental defects; Anti-inflammatory effects [5]: anti-inflammatory NAP effects were observed

From patent US20220340955A1, “METHODS FOR DIAGNOSING AND TREATMENT MONITORING OF ADNP-DEFICIENT PATIENTS” (RAMOT AT TEL-AVIV UNIVERSITY LTD., priority 2019, published 2022)
